Results as given in patent US11369613B2, “Salts and solid form of a BTK inhibitor” (PRINCIPIA BIOPHARMA INC., priority 2014, dated 2022).
Blank lines part the entries; values can stand above or below the compound they belong to.

Key:
[1] = Stability of the free base on drying (thermal stability); assay type: physicochemical; conditions: drying under vacuum, at less than 45° C.
Text: Isolation of compound (I) as described in PCT Application No. PCT/US2013058614 is less than ideal for large scale synthesis and isolation and therefore handling and formulating of the resulting compound can present challenges. In addition, when isolated as described in PCT Application No. PCT/US2013058614, the isolated compound (I) retains a higher percentage of residual solvent after drying under vacuum at ambient temperature than that allowed under the International Conference on Harmonisation of Technical Requirements for Registration of Pharmaceuticals for Human Use (“ICH”) guidelines (e.g., -ICH limit for class 2 solvents ranges between 50-3880 ppm and for class 3 solvents <5000 ppm).
However, the solids obtained by this method contained high residual solvents (3.9 wt % isopropylacetate and 1.7 wt % heptane).

chronic SLE = conditions: cited from earlier work
BTK = target: T1, BTK (Canis lupus familiaris, UniProt A0A8I3P3Z9); assay: BTK occupancy in blood in the dog pemphigus foliaceus study; assay type: in vivo; conditions: oral 500 mg daily, blood taken 24 hours after the first dose, read-out: level of BTK occupancy
T1 construct: from tissue; host or cells: blood of the treated dog
T1 sequence (A0A8I3P3Z9 1-664): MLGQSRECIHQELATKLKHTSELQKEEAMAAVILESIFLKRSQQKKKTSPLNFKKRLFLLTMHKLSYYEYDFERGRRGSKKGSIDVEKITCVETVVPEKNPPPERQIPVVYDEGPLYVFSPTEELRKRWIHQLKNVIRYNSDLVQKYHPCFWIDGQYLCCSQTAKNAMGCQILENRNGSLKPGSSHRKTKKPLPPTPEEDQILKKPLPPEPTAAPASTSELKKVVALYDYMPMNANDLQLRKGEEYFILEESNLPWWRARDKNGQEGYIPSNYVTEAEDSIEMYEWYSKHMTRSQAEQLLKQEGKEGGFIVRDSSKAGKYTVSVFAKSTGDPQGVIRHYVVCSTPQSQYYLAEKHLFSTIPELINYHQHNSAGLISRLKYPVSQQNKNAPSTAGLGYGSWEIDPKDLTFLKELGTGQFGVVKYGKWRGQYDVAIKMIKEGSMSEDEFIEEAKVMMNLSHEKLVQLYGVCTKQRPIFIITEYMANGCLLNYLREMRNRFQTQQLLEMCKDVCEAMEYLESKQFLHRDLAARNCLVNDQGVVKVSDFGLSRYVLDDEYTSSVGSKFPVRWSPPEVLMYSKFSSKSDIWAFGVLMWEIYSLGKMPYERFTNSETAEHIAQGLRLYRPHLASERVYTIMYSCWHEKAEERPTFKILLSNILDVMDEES

pemphigus foliaceus = assay: Dog pemphigus foliaceus study; assay type: in vivo
[2] = test system: ANCA-associated vasculitis; conditions: cited from earlier work
pemphigus vulgaris = conditions: cited from earlier work

Stability of free base (degradation products during drying) [1]: thermal instability
Stability of free base (degradation products during drying) ([1]; listed as free base form): not very stable
Compound: CC(C)(C=C(C#N)C(=O)N1CCC[C@@H](n2nc(-c3ccc(Oc4ccccc4)cc3F)c3c(N)ncnc32)C1)N1CCN(C2COC2)CC1 [Compound (I), 2-[(3R)-3-[4-amino-3-(2-fluoro-4-phenoxy-phenyl)pyrazolo[3,4-d]pyrimidin-1-yl]piperidine-1-carbonyl]-4-methyl-4-[4-(oxetan-3-yl)piperazin-1-yl]pent-2-enenitrile]

Compound: Belimumab: an anti-Blys antibody
Effect on improvement of chronic SLE (chronic SLE): modest and delayed effect on improvement
Patients able to reduce corticosteroid use to <7.5 mg of prednisone (chronic SLE; week 40-52): ≤ 21% of patients (Benlysta US Product

receptor occupancy at 500 mg (BTK): ~70%
Compound: CC(C)(C)/C=C(\C#N)C(=O)N1CCC[C@@H](n2nc(-c3ccc(Oc4ccccc4)cc3F)c3c(N)ncnc32)C1 [(R,E)-2-(3-(4-amino-3-(2-fluoro-4-phenoxy-phenyl)-1H-pyrazolo[3,4-d]-pyrimidin-1-yl)piperidine-1-carbonyl)-4,4-dimethylpent-2-enenitrile]
Time to clinical response (improved eating and ambulation) (pemphigus foliaceus; 30 kg Doberman, oral 500 mg daily, monotherapy): within three days
Manifestation of pre-clinical response compared with systemic corticosteroid therapy (pemphigus foliaceus; dog with pemphigus foliaceus, single agent): as rapid and comparable to that observed with systemic corticosteroid therapy
Corticosteroid-like adverse effects (polyuria, polydipsia, polyphagia, weight gain) (pemphigus foliaceus; dog, oral 500 mg daily): No well-known corticosteroid-like adverse effects
Skin lesions by four weeks (pemphigus foliaceus; dog, oral 500 mg daily, four weeks): completely healed
Clinical status at one week follow up visit (pemphigus foliaceus; dog, oral 500 mg daily, one week): improved general health and commencement of pemphigus lesion healing
Clinical status after two weeks of treatment (pemphigus foliaceus; dog, oral 500 mg daily, two weeks): general health of the dog was excellent and skin lesions continued to improve
Corticosteroid-like adverse effects (polyuria, polydipsia, polyphagia, weight gain) (pemphigus foliaceus; dog, oral 500 mg daily, listed as (R,E)-2-(3-(4-amino-3-(2-fluoro-4-phenoxyphenyl)-1H-pyrazolo [3,4-d]-pyrimidin-1))): none of the well-known corticosteroid-like adverse effects

Compound: Rituximab: anti-CD20 agent
Onset of effect [2]: Rituximab has delayed effect in ANCA-
Onset of effect (pemphigus vulgaris): Rituximab has delayed effect in pemphigus
Time of maximal effect (pemphigus vulgaris): vulgaris with maximal effect at 8-12 weeks
